According to patent EP4745137A1 (Gluetacs Therapeutics (Shanghai) Co., Ltd., priority 2023, dated 2025):

What was measured:
IKZF1 = molecular target: T1, IKZF1 (Homo sapiens, UniProt Q13422+Q96SW2); assay: Western-blot assay of substrate protein degradation in hPBMCs, IKZF1; type: cell-based; conditions: 24 hours of compound treatment
T1 construct: endogenous in cells; host or cells: hPBMCs (Milecell Biotechnologies)

CK1α = molecular target: T2, CK1α (Homo sapiens, UniProt P48729+Q96SW2); assay: Western-blot assay of substrate protein degradation in hPBMCs, CK1α; type: cell-based; conditions: 24 hours of compound treatment
T2 construct: endogenous in cells; host or cells: hPBMCs (Milecell Biotechnologies)
T2 sequence (P48729 whole entry): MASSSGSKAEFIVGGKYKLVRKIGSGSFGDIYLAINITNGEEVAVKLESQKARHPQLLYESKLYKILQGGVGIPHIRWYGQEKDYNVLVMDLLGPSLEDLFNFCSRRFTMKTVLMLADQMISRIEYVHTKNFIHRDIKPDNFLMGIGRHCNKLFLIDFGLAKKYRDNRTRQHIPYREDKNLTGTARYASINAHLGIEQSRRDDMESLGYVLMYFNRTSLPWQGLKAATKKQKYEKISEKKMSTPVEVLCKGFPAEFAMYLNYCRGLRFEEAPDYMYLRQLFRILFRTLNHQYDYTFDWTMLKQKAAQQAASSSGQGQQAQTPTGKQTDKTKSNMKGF
T2 sequence (Q96SW2 whole entry): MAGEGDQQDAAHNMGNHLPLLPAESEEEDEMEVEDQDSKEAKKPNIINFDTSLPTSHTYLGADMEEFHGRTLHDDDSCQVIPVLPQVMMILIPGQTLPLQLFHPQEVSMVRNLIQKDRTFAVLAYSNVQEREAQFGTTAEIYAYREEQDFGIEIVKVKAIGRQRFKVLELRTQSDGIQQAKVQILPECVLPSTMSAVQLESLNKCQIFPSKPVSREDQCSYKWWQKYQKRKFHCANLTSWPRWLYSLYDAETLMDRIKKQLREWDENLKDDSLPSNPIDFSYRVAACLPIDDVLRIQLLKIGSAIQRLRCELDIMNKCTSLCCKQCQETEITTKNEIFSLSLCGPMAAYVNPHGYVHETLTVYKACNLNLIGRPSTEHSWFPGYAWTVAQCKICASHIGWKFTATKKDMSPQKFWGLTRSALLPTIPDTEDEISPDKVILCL
T2 sequence (Q16531 whole entry partner): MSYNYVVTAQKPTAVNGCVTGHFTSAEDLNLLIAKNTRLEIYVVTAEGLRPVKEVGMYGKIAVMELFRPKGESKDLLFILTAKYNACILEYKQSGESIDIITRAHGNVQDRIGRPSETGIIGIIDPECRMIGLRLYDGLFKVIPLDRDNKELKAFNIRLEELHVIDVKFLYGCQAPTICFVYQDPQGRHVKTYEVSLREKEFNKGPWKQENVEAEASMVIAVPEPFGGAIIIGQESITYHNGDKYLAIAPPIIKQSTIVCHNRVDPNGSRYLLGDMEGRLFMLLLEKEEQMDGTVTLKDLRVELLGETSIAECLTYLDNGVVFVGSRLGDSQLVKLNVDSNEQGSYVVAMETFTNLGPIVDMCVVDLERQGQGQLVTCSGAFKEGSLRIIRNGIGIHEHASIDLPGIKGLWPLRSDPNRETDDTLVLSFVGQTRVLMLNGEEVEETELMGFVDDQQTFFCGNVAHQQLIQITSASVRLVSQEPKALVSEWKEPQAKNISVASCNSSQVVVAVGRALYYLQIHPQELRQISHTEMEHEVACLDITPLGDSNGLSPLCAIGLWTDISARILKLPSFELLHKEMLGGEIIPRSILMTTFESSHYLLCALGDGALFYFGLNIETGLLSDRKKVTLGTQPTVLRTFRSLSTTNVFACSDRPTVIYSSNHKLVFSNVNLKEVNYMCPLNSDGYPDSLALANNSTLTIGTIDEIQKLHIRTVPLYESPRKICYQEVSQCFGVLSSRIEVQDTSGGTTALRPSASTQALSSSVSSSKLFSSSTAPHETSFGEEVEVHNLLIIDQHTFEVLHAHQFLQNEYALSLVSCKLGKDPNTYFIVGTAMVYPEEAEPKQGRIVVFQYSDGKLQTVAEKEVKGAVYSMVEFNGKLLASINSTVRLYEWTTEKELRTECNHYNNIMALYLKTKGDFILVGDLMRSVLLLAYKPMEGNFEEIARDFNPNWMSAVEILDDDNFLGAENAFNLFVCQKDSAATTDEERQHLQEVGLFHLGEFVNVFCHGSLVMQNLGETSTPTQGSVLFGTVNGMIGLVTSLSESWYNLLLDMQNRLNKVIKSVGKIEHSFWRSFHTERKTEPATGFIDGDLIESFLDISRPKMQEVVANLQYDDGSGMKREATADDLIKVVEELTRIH

[1] = molecular target: T3, human Cereblon WT GST-tagged protein (Homo sapiens, UniProt Q96SW2); assay: CRBN-binding affinity by HTRF (CEREBLON BINDING kit); conditions: HTRF inhibitory activity, CEREBLON BINDING kit; read-out: HTRF IC50
T3 construct: purchased CISBIO 64BDCRBNPEH
T3 sequence (Q96SW2 whole entry): as the sequence (Q96SW2 whole entry) above

IKZF2 = molecular target: T4, IKZF2 (Homo sapiens, UniProt Q96SW2+Q9UKS7); assay: Western-blot assay of substrate protein degradation in hPBMCs, IKZF2; type: cell-based; conditions: 24 hours of compound treatment
T4 construct: endogenous in cells; host or cells: hPBMCs (Milecell Biotechnologies)
T4 sequence (Q9UKS7 whole entry): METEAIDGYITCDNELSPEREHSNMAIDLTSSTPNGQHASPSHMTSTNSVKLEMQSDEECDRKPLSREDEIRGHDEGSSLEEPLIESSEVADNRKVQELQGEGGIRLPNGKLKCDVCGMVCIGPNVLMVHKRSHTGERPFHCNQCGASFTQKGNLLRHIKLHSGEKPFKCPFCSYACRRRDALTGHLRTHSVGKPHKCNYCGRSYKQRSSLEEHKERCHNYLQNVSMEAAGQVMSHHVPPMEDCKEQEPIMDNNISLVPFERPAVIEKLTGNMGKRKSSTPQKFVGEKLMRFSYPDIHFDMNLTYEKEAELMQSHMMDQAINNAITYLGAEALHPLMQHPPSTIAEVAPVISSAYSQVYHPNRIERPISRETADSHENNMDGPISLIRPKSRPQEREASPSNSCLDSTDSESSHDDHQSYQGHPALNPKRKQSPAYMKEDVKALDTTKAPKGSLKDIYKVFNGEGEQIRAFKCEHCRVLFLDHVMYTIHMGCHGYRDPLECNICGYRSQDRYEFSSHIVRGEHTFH
T4 sequence (Q96SW2 whole entry): as the sequence (Q96SW2 whole entry) above
T4 sequence (Q16531 whole entry partner): as the sequence (Q16531 whole entry partner) above

GSPT1 = molecular target: T5, GSPT1 (Homo sapiens, UniProt P15170+Q96SW2); assay: Western-blot assay of substrate protein degradation in hPBMCs, GSPT1; type: cell-based; conditions: 24 hours of compound treatment
T5 construct: endogenous in cells; host or cells: hPBMCs (Milecell Biotechnologies)
T5 sequence (P15170 whole entry): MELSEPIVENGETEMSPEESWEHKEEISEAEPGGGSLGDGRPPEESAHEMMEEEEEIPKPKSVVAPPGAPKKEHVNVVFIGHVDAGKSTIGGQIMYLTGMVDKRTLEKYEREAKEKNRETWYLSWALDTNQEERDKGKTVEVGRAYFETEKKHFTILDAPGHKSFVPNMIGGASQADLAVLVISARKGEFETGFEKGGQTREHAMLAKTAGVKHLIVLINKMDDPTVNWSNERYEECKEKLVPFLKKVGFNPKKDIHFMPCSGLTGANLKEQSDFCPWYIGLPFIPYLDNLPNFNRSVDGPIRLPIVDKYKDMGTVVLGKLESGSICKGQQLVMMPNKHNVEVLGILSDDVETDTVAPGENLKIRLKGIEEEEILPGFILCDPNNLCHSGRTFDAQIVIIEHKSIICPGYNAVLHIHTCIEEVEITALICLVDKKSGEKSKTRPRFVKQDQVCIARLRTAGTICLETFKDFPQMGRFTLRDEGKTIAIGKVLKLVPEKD
T5 sequence (Q96SW2 whole entry): as the sequence (Q96SW2 whole entry) above
T5 sequence (Q16531 whole entry partner): as the sequence (Q16531 whole entry partner) above

WEE1 = molecular target: T6, WEE1 (Homo sapiens, UniProt P30291+Q96SW2); assay: Western-blot assay of substrate protein degradation in hPBMCs, WEE1; type: cell-based; conditions: 24 hours of compound treatment
T6 construct: endogenous in cells; host or cells: hPBMCs (Milecell Biotechnologies)

IKZF3 = molecular target: T7, IKZF3 (Homo sapiens, UniProt Q96SW2+Q9UKT9); assay: Western-blot assay of substrate protein degradation in hPBMCs, IKZF3; type: cell-based; conditions: 24 hours of compound treatment
T7 construct: endogenous in cells; host or cells: hPBMCs (Milecell Biotechnologies)
T7 sequence (Q9UKT9 whole entry): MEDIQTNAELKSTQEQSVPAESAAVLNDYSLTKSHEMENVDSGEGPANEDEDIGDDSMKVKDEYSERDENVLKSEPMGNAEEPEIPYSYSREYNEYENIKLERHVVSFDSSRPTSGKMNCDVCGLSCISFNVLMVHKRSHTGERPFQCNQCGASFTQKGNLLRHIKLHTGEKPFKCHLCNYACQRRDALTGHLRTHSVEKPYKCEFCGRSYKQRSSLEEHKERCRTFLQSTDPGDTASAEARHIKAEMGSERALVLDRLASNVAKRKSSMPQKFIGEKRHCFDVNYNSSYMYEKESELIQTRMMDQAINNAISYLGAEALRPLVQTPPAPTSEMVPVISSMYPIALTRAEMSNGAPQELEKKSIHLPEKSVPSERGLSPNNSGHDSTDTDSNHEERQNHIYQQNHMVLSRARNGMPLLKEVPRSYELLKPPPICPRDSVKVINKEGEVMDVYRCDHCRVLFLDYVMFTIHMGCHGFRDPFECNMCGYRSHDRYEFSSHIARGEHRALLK
T7 sequence (Q96SW2 whole entry): as the sequence (Q96SW2 whole entry) above
T7 sequence (Q16531 whole entry partner): as the sequence (Q16531 whole entry partner) above

[2] = 50 nM and 500 nM tested (concentration behind the class not stated)
[3] = compounds tested at 50 nM and 500 nM (concentration of the table not stated)

T1 sequence (Q13422 whole entry): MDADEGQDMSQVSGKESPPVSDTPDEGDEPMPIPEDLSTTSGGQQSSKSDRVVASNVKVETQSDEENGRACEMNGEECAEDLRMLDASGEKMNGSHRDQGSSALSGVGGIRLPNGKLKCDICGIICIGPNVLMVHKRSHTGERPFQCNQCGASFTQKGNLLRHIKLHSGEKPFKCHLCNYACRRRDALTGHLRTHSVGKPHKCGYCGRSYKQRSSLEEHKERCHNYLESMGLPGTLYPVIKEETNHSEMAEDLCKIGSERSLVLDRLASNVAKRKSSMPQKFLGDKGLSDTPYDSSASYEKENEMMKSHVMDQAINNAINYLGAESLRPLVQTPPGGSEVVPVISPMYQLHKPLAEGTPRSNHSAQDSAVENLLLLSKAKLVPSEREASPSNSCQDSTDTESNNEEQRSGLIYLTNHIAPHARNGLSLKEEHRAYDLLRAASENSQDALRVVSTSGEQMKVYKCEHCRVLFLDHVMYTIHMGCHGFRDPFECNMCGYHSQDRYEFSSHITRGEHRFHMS
T1 sequence (Q96SW2 whole entry): as the sequence (Q96SW2 whole entry) above
T1 sequence (Q16531 whole entry partner): as the sequence (Q16531 whole entry partner) above

Row | SMILES | IKZF 1 substrate protein remaining % (IKZF1; [2]) | CK1a substrate protein remaining % (CK1α; [2]) | IC50 [1] [nM] | IKZF2 substrate protein remaining % (IKZF2; [2]) | GSPT1 substrate protein remaining % (GSPT1; [2]) | Weel substrate protein remaining % (WEE1; [2]) | IKZF3 substrate protein remaining % (IKZF3; [2]) | IKZF 1 substrate protein remaining % (IKZF1; [3]) | CK1a substrate protein remaining % (CK1α; [3]) | IKZF2 substrate protein remaining % (IKZF2; [3]) | GSPT1 substrate protein remaining % (GSPT1; [3]) | Weel substrate protein remaining % (WEE1; [3]) | IKZF3 substrate protein remaining % (IKZF3; [3])
1 | Cc1ccc(N2CCN(Cc3ccc4c(c3)C(=O)N(C3CCC(=O)NC3=O)C4=O)CC2)s1 (stereo not drawn) [GT-06213, 2-(2,6-dioxopiperidin-3-yl)-5-((4-(5-methylthiophen-2-yl)piperazin-1-yl)methyl)isoindoline-1,3-dione] | B (80%< substrate protein remaining %≤ 100%) | B (80%< substrate protein remaining %≤ 100%) | 1500 to 1900 | A (0% ≤ substrate protein remaining % ≤ 80%) | A (0% ≤ substrate protein remaining % ≤ 80%) | B (80%< substrate protein remaining %≤ 100%) | B (80%< substrate protein remaining %≤ 100%) |  |  |  |  |  | 
2 | O=C1CCC(N2Cc3cc(CN4CCN(c5ncnc6sccc56)CC4)ccc3C2=O)C(=O)N1 (stereo not drawn) [GT-04678, 3-(1-oxo-5-((4-(thieno[2,3-d]pyrimidin-4-yl)piperazin-1-yl)methyl)isoindolin-2-yl)piperidine-2,6-dione] |  |  | 500 to 1000 |  |  |  |  | A (0% ≤ substrate protein remaining % ≤ 80%) | B (80%< substrate protein remaining %≤ 100%) | A (0% ≤ substrate protein remaining % ≤ 80%) | A (0% ≤ substrate protein remaining % ≤ 80%) | A (0% ≤ substrate protein remaining % ≤ 80%) | A (0% ≤ substrate protein remaining % ≤ 80%)
3 | O=C1CCC(N2Cc3cc(CN4CCC(c5ncnc6scc(-c7ccccc7)c56)CC4)ccc3C2=O)C(=O)N1 (stereo not drawn) [GT-04995, 3-(1-oxo-5-((4-(5-phenylthieno[2,3-d]pyrimidin-4-yl)piperidin-1-yl)methyl)isoindolin-2-yl)piperidine-2,6-dione] |  |  | < 500 |  |  |  |  | A (0% ≤ substrate protein remaining % ≤ 80%) | B (80%< substrate protein remaining %≤ 100%) | A (0% ≤ substrate protein remaining % ≤ 80%) | B (80%< substrate protein remaining %≤ 100%) | A (0% ≤ substrate protein remaining % ≤ 80%) | A (0% ≤ substrate protein remaining % ≤ 80%)
4 | O=C1CCC(N2C(=O)c3ccc(CN4CCC(c5ncnc6sc7c(c56)CCC7)CC4)cc3C2=O)C(=O)N1 (stereo not drawn) [GT-06650, 5-((4-(6,7-dihydro-5H-cyclopenta[4,5]thieno[2,3-d]pyrimidin-4-yl)piperidin-1-yl)methyl)-2-(2,6-dioxopiperidin-3-yl)isoindoline-1,3-dione] | B (80%< substrate protein remaining %≤ 100%) | B (80%< substrate protein remaining %≤ 100%) | 1500 to 1900 | B (80%< substrate protein remaining %≤ 100%) | B (80%< substrate protein remaining %≤ 100%) | A (0% ≤ substrate protein remaining % ≤ 80%) | B (80%< substrate protein remaining %≤ 100%) |  |  |  |  |  | 
5 | O=C1CCC(N2Cc3cc(CN4CCN(c5cccnn5)CC4)ccc3C2=O)C(=O)N1 (stereo not drawn) [GT-04473, 3-(1-oxo-5-((4-(pyridazin-3-yl)piperazin-1-yl)methyl)isoindolin-2-yl)piperidine-2,6-dione] |  |  | 500 to 1000 |  |  |  |  | A (0% ≤ substrate protein remaining % ≤ 80%) | B (80%< substrate protein remaining %≤ 100%) | B (80%< substrate protein remaining %≤ 100%) | A (0% ≤ substrate protein remaining % ≤ 80%) | A (0% ≤ substrate protein remaining % ≤ 80%) | B (80%< substrate protein remaining %≤ 100%)
6 | O=C1CCC(N2Cc3cc(CN4CCN(c5nc(N6CCOCC6)c6sccc6n5)CC4)ccc3C2=O)C(=O)N1 (stereo not drawn) [GT-04906, 3-(5-((4-(4-morpholinothieno[3,2-d]pyrimidin-2-yl)piperazin-1-yl)methyl)-1-oxoisoindolin-2-yl)piperidine-2,6-dione] |  |  | < 500 |  |  |  |  | A (0% ≤ substrate protein remaining % ≤ 80%) | B (80%< substrate protein remaining %≤ 100%) | B (80%< substrate protein remaining %≤ 100%) | B (80%< substrate protein remaining %≤ 100%) | B (80%< substrate protein remaining %≤ 100%) | B (80%< substrate protein remaining %≤ 100%)
7 | O=C1CCC(N2Cc3cc(CN4CCN(c5c(Cl)cccc5Cl)CC4)ccc3C2=O)C(=O)N1 (stereo not drawn) [GT-04613, 3-(5-((4-(2,6-dichlorophenyl)piperazin-1-yl)methyl)-1-oxoisoindolin-2-yl)piperidine-2,6-dione] |  |  | 1000 to 1500 |  |  |  |  | B (80%< substrate protein remaining %≤ 100%) | B (80%< substrate protein remaining %≤ 100%) | B (80%< substrate protein remaining %≤ 100%) | A (0% ≤ substrate protein remaining % ≤ 80%) | A (0% ≤ substrate protein remaining % ≤ 80%) | B (80%< substrate protein remaining %≤ 100%)
8 | Cc1csc2ncnc(N3CCN(Cc4ccc5c(c4)CN(C4CCC(=O)NC4=O)C5=O)CC3)c12 (stereo not drawn) [GT-04679, 3-(5-((4-(5-methylthieno[2,3-d]pyrimidin-4-yl)piperazin-1-yl)methyl)-1-oxoisoindolin-2-yl)piperidine-2,6-dione] |  |  | 500 to 1000 |  |  |  |  | B (80%< substrate protein remaining %≤ 100%) | A (0% ≤ substrate protein remaining % ≤ 80%) | B (80%< substrate protein remaining %≤ 100%) | A (0% ≤ substrate protein remaining % ≤ 80%) | B (80%< substrate protein remaining %≤ 100%) | B (80%< substrate protein remaining %≤ 100%)
9 | O=C1CCC(N2Cc3cc(CN4CCN(c5nc(N6CCCC6)nc6c5SCC6)CC4)ccc3C2=O)C(=O)N1 (stereo not drawn) [GT-05389, 3-(1-oxo-5-((4-(2-(pyrrolidin-1-yl)-6,7-dihydrothieno[3,2-d]pyrimidin-4-yl)piperazin-1-yl)methyl)isoindolin-2-yl)piperidine-2,6-dione] |  |  | < 500 |  |  |  |  | A (0% ≤ substrate protein remaining % ≤ 80%) | B (80%< substrate protein remaining %≤ 100%) | A (0% ≤ substrate protein remaining % ≤ 80%) | B (80%< substrate protein remaining %≤ 100%) | B (80%< substrate protein remaining %≤ 100%) | B (80%< substrate protein remaining %≤ 100%)
10 | O=C1CCC(N2C(=O)c3ccc(CN4CC=C(c5ccco5)CC4)cc3C2=O)C(=O)N1 (stereo not drawn) [GT-06222, 2-(2,6-dioxopiperidin-3-yl)-5-((4-(furan-2-yl)-3,6-dihydropyridin-1(2H)-yl)methyl)isoindoline-1,3-dione] | A (0% ≤ substrate protein remaining % ≤ 80%) | A (0% ≤ substrate protein remaining % ≤ 80%) | 1000 to 1500 | A (0% ≤ substrate protein remaining % ≤ 80%) | A (0% ≤ substrate protein remaining % ≤ 80%) | A (0% ≤ substrate protein remaining % ≤ 80%) | A (0% ≤ substrate protein remaining % ≤ 80%) |  |  |  |  |  | 
11 | O=C1CCC(N2C(=O)c3ccc(CN4CCN(c5ncnc6sc7c(c56)CCC7)CC4)cc3C2=O)C(=O)N1 (stereo not drawn) [GT-06565, 5-((4-(6,7-dihydro-5H-cyclopenta[4,5]thieno[2,3-d]pyrimidin-4-yl)piperazin-1-yl)methyl)-2-(2,6-dioxopiperidin-3-yl)isoindoline-1,3-dione] | A (0% ≤ substrate protein remaining % ≤ 80%) | A (0% ≤ substrate protein remaining % ≤ 80%) | 1000 to 1500 | A (0% ≤ substrate protein remaining % ≤ 80%) | A (0% ≤ substrate protein remaining % ≤ 80%) | A (0% ≤ substrate protein remaining % ≤ 80%) | A (0% ≤ substrate protein remaining % ≤ 80%) |  |  |  |  |  | 
12 | CC(C)c1cc2c(N3CCN(Cc4ccc5c(c4)CN(C4CCC(=O)NC4=O)C5=O)CC3)ncnc2s1 (stereo not drawn) [GT-04705, 3-(5-((4-(6-isopropylthieno[2,3-d]pyrimidin-4-yl)piperazin-1-yl)methyl)-1-oxoisoindolin-2-yl)piperidine-2,6-dione] |  |  | 500 to 1000 |  |  |  |  | A (0% ≤ substrate protein remaining % ≤ 80%) | A (0% ≤ substrate protein remaining % ≤ 80%) | A (0% ≤ substrate protein remaining % ≤ 80%) | A (0% ≤ substrate protein remaining % ≤ 80%) | B (80%< substrate protein remaining %≤ 100%) | A (0% ≤ substrate protein remaining % ≤ 80%)
